Patent US20120029036A1, “PHARMACEUTICAL COMPOSITIONS COMPRISING PYRIDYL CYANOGUANIDINE, PROCESS FOR PREPARING THE SAME AND USE THEREOF” (Tianjin Michele Sci-Tech Development Co., Ltd., priority 2009, published 2012)
In brackets after ≈: the same amount, converted by molar mass.

How the values were obtained:
[1] = Solubilization of compound 1 with surfactants, solution placed for observation; assay type: physicochemical; conditions: 12 hours
Method: (§1) 2.5 mg of compound 1 was weighed and dissolved with 0.5 ml of 0.1N hydrochloric acid solution. 5% (V/V) of polysorbate 80 was added in the resultant solution. The pH of the solution was adjusted with 0.1N of sodium hydroxide to such an extent that precipitates were just to generate.
2.5 mg of compound 1 was weighed and dissolved with 0.5 ml of 0.1N hydrochloric acid solution. An amount of 0.1 N sodium hydroxide solution which is equal to that in Example 25 was added. Precipitates produced.
as §1, with “2” for “2.5”, “polyethylene glycol-12-hydroxy stearate” for “polysorbate 80”
2 mg of compound 1 was weighed and dissolved with 0.5 ml of 0.1N hydrochloric acid solution. The pH was adjusted with an amount of 0.1 N sodium hydroxide solution which is equal to that in Example 27. Precipitates produced.
2 mg of compound 1 was weighed and dissolved with 0.5 ml of 0.1N hydrochloric acid solution. 5% (V/V) of polyoxyethylene castor oil was added in the resultant solution. The pH of the solution was adjusted with 0.1N of sodium hydroxide to such an extent that precipitates were just to generate.
2 mg of compound 1 was weighed and dissolved with 0.5 ml of 0.1N hydrochloric acid solution. The pH was adjusted with an amount of 0.1 N sodium hydroxide solution which is equal to that in Example 29. Precipitates produced.

[2] = system: normal human endothelial cells; conditions: in vitro; cited from earlier work
human tumour cells = conditions: nude mice transplanted human tumour cells; cited from earlier work
[3] = Determination of solubility in hydrochloric acid solution of pH 4.0 (saturated solution, HPLC); assay type: physicochemical; conditions: ultrasonic 1 hour; for solubility at 1 h: aqueous buffer, thermodynamic from solid, read-out: Solubilities in hydrochloric acid of pH 4
Method: 1.6 mg of compound 4 was weighed and dissolved in a mixed solution of 1 ml of methanol and 0.5 ml of DMSO to obtain a control solution. 7.66 mg of compound 4 was dissolved in hydrochloric acid solution of pH 4.0 and shaken in an ultrasonic device for 1 hour to prepare a saturated solution. The solubility of compound 4 in hydrochloric acid solution of pH 4.0 was determined by HPLC.
The solubilities of compound 5 to compound 17 in hydrochloric acid solution were determined with the process for determining the solubility in Example 52.

Row | Structure (SMILES) | Solubilities in hydrochloric acid of pH 4 [3] [mg/ml] | solubility at 1 h [3] [µg/mL] | other results
1 | N#CNC(=Nc1ccncc1)NCCCCCCOc1ccc(Cl)cc1 [compound 1, N-cyano-N′-(6-(p-chlorophenoxy)hexyl)-N″-(4-pyridyl)guanidine] |  |  | appearance of solution on standing ([1]; Example 25: 0.1N HCl, 5% (V/V) polysorbate 80, pH adjusted with 0.1N NaOH): solution kept clear for 12 hours; appearance of solution on standing ([1]; Example 26: control without polysorbate 80, same amount of NaOH): precipitates increased during 12 hours; appearance of solution on standing ([1]; Example 27: 0.1N HCl, 5% (V/V) polyethylene glycol-12-hydroxy stearate, pH adjusted with 0.1N NaOH): solution kept clear for 12 hours; appearance of solution on standing ([1]; Example 28: control without polyethylene glycol-12-hydroxy stearate, same amount of NaOH): precipitates increased during 12 hours; appearance of solution on standing ([1]; Example 29: 0.1N HCl, 5% (V/V) polyoxyethylene castor oil, pH adjusted with 0.1N NaOH): solution kept clear for 12 hours; appearance of solution on standing ([1]; Example 30: control without polyoxyethylene castor oil, same amount of NaOH): precipitates increased during 12 hours; antiproliferative activity to normal human endothelial cells [2]: significantly lower antiproliferative activity; antitumour activity (human tumour cells): potent antitumour activity
2 | N#CN=C(NCCCCCCCCCCCCNC(=NC#N)Nc1ccncc1)Nc1ccncc1 [compound 4, 1,12-bis(N′-cyano-N″-4-pyridylguanidine)dodecane] | 0.00052 |  | 
3 | CC(C)(C)OC(=O)NCCCCCCCCCCCCNC(=Nc1ccncc1)NC#N [compound 5, N-(12-(tert-butoxycarbonylamino)dodecyl)-N′-cyano-N″-(4-pyridyl)guanidine] |  | 0.92 (≈ 2.07 µM) | 
4 | N#CNC(=Nc1ccncc1)NCCCCCCOC(=O)c1ccc(Cl)cc1 [compound 6, N-(6-((4-chlorobenzoic acid)ester)hexyl)-N′-cyano-N″-(4-pyridyl)guanidine] | 0.00225 |  | 
5 | N#CNC(=Nc1ccncc1)NCCCCCCOc1ccc(F)cc1Cl [compound 7] | 0.09993 |  | 
6 | N#CNC(=Nc1ccncc1)NCCCCCCOc1ccccc1Br [compound 8, N-cyano-N′-(6-(o-bromophenoxy)hexyl)-N″-(4-pyridyl)guanidine] |  | 205 (≈ 494 µM) | 
7 | N#CNC(=Nc1ccncc1)NCCCCCCOc1c(Cl)cccc1Cl [compound 9, N-cyano-N′-(6-((2,6-dichlorophenyl)oxo)hexyl)-N″-(4-pyridyl)guanidine] | 0.05331 |  | 
8 | N#CNC(=Nc1ccncc1)NCCCCCCOc1ccccc1OC(F)(F)F [compound 10] | 0.01965 |  | 
9 | N#CNC(=Nc1ccncc1)NCCCCCOc1ccccc1Cl [compound 11, N-cyano-N′-(5-(o-chlorophenoxy)pentyl)-N″-(4-pyridyl)guanidine] |  | 2.85 (≈ 7.96 µM) | 
10 | N#CNC(=Nc1ccncc1)NCCCCCCCOc1ccccc1Cl [compound 12, N-cyano-N′-(7-(o-chlorophenoxy)heptyl)-N″-(4-pyridyl)guanidine] |  | 3.72 (≈ 9.64 µM) | 
11 | N#CNC(=Nc1ccncc1)NCCCCCOc1ccc(Cl)cc1 [compound 13, N-cyano-N′-(5-(p-chlorophenoxy)pentyl)-N″-(4-pyridyl)guanidine] |  | 29.5 (≈ 82.5 µM) | 
12 | COc1ccccc1OCCCCCCCCNC(=Nc1ccncc1)NC#N [compound 14, N-cyano-N′-(8-((o-methoxyphenyl)oxo)octyl)-N″-(4-pyridyl)guanidine] | 0.1481 |  | 
13 | N#CNC(=Nc1ccncc1)NCCCCCOc1ccc(Cl)cc1Cl [compound 15, N-cyano-N′-(5-((2,4-dichlorophenyl)oxo)pentyl)-N″-(4-pyridyl)guanidine] | 0.000829 |  | 
14 | N#CNC(=Nc1ccncc1)NCCCCCOc1c(Cl)cc(Cl)cc1Cl [compound 16] | 0.01753 |  | 
15 | N#CNC(=Nc1ccncc1)NCCCCCCOc1c(Cl)cc(Cl)cc1Cl [compound 17, N-cyano-N′-(6-((2,4,6-trichlorophenyl)oxo)hexyl)-N″-(4-pyridyl)guanidine] | 0.00669 |  | 
